Here are results for 35 molecules from PubChem BioAssay AID2823 (Broad Institute, 2010).

The structures appear in SMILES notation. Active and inactive are the calls of the source. How the calls were made is not given here.

The target of this assay is RanGTP-importin-beta complex (human Ran / KPNB1). Nature of the assay: Ran–importin-beta interaction inhibitors, confirmation, biochemical, FRET, CFP/YFP, cell-free homogeneous (AID 2823). To be noted: CFP-Ran/YFP-importin-beta FRET ratio.
Take `NS(=O)(=O)c1ccc(CCNC(=O)C2CCN(S(=O)(=O)c3ccc(Br)s3)CC2)cc1`: the IC50 was > 50 µM (inactive).
The value for `O=C1NC(=O)N(Cc2ccccc2)C(=O)/C1=C/N1CCCc2ccccc21` was > 50 µM (inactive); that for `CCn1c(SCc2nc(-c3ccccc3)no2)nnc1-c1cccs1` was > 50 µM (inactive); that for `Cc1ccc2cc(C#N)c(N3CCCC3)nc2c1C` was > 50 µM (inactive).
The value for `Cc1ccc(NC(=S)NCCN2CCOCC2)cc1` was > 50 µM (inactive); that for `COCCCn1c(N)c(C(=O)Nc2ccccc2)c2nc3ccccc3nc21` was 40.8 µM.
The value for `CCCCn1c(NC(=O)c2ccc(Br)o2)c(S(=O)(=O)c2ccccc2)c2nc3ccccc3nc21` was 4.83 µM; that for `CCN(CC)S(=O)(=O)c1cc(C(=O)Nc2ccccc2[N+](=O)[O-])ccc1Cl` was > 50 µM (inactive); that for `CCC(C)c1ccc(OCC(=O)O)cc1` (stereo not given) was > 50 µM (inactive).
As for `C/C(=N\OCC(=O)OCC(=O)NC(=O)c1ccccc1)c1ccc2c(c1)OCO2`, the IC50 is > 50 µM (inactive).
Consider `Cc1cc(C2C(C#N)=C(N)SC(N)=C2C#N)c(C)s1`, for which the IC50 is > 50 µM (inactive).
The value for `Cc1c(N=Cc2c(O)n(Cc3ccco3)c(=O)c3ccccc23)c(=O)n(-c2ccccc2)n1C` was > 50 µM (inactive).
The value for `CCc1ccccc1N(CC(=O)NCc1ccco1)C(=O)CCC(=O)Nc1nccs1` was > 50 µM (inactive); that for `Cc1cc(C=C(C#N)C#N)ccc1N1CCCC1` was > 50 µM (inactive); that for `C=CCN1C(=O)/C(=C2/Sc3ccccc3N2CC)SC1=S` was > 50 µM (inactive).
The value for `Cc1nn(C)c(Oc2ccc(Cl)cc2)c1C(=O)O` was > 50 µM (inactive); that for `O=C(/C=C/c1cccs1)Nc1ccc([N+](=O)[O-])cc1` was > 50 µM (inactive); that for `Cc1ccc(Nc2nc(N)[nH]c(=O)c2N=O)cc1` was 16.1 µM.
For `COc1ccc(C(=O)Cc2cnn(-c3ccccc3)c2)c(O)c1`, the IC50 is > 50 µM (inactive).
The value for `CCCn1c(SCC(=O)Nc2ccc(NC(C)=O)cc2)nc2c1c(=O)n(C)c(=O)n2C` was > 50 µM (inactive).
The value for `CC(=O)O/N=C/c1c(Cl)n(C)c2ccccc12` was > 50 µM (inactive).
The value for `C=CCn1c(SCC(=O)Nc2sccc2C(N)=O)nc2ccccc2c1=O` was > 50 µM (inactive); that for `COc1ccccc1CNC(=O)COC(=O)Cc1ccc(Cl)cc1` was > 50 µM (inactive); that for `COc1ccc(N2C(=O)CC(C#N)=C2N)cc1` was > 50 µM (inactive).
Turning to `Nc1ccc(C2(c3ccc(N)cc3)CN3CCC2CC3)cc1`, the IC50 was > 50 µM (inactive).
The value for `CCc1cc2c(COC(=O)c3c(C)noc3C)cc(=O)oc2cc1O` was > 50 µM (inactive).
On to `CCCC1C(C#N)=C(N)Oc2cc(C)n(C)c(=O)c21` (stereo not given), for which the IC50 is > 50 µM (inactive).
The value for `Cc1ccc(Nc2nc(N)nc(CC#N)n2)cc1` was > 50 µM (inactive); that for `CCN(CC)S(=O)(=O)c1ccc(NC(=O)c2cccc3c2C(=O)N(CCOC)C3)cc1` was > 50 µM (inactive).
The value for `O=C(COC(=O)c1cccnc1Nc1ccccc1F)NCCN1C(=O)CSC1=O` was > 50 µM (inactive); that for `CCS(=O)(=O)c1nc(S(=O)(=O)c2ccc(C)cc2)c(NCc2ccccn2)s1` was > 50 µM (inactive).
With `CCCCCN(C(=O)CN(C)Cc1ccc(OC)cc1OC)c1c(N)n(CCCC)c(=O)[nH]c1=O`, the IC50 was > 50 µM (inactive).
The value for `CCOC(=O)CSc1nnc(CSc2nc3sc4c(c3c(=O)[nH]2)CCCC4)n1-c1ccccc1` was > 50 µM (inactive).
The value for `COC(=O)C1=CN(Cc2ccc(OC)cc2)C=C(C(=O)OC)C1c1ccc(O)c(OC)c1` was > 50 µM (inactive); that for `CCCNS(=O)(=O)c1ccc2c(c1)CCCN2C(C)=O` was > 50 µM (inactive).
